ChEMBL document CHEMBL3627714, “Development of a novel class of potent and selective FIXa inhibitors” (Bioorg Med Chem Lett, 2015)

Assays:
[1] = biological target: Coagulation factor X (Homo sapiens, UniProt P00742); experiment: Inhibition of human coagulation factor 10a using fluorescent peptide nAcetyl-KPR-AFC as substrate
[2] = biological target: Coagulation factor IX (Homo sapiens, UniProt P00740); experiment: Inhibition of human coagulation factor 9a using fluorescent peptide CH3SO2-D-CHG-Gly-Arg-AFC-AcoH as substrate
Sequence of Coagulation factor IX (P00740 47-191 limits assumed): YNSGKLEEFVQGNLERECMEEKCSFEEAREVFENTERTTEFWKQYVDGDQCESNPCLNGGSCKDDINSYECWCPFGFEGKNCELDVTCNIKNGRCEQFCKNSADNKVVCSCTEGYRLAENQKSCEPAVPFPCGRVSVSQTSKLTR
Sequence of Coagulation factor IX (P00740 227-461 limits assumed): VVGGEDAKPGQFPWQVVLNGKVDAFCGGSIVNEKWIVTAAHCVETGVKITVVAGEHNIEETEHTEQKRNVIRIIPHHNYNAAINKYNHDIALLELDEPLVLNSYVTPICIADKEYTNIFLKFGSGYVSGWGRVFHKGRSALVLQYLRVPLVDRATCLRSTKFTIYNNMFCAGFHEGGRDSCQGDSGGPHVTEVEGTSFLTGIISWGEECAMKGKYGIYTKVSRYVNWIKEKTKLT

[3] = Half life in rat at 2 mg/kg, po and 0.5 mg/kg, iv; assay type: ADME, organism-based; details: in vivo
[4] = biological target: T1, Cytochrome P450 2C8 (Homo sapiens, UniProt P10632); experiment: Inhibition of CYP2C8 (unknown origin); assay type: ADME
T1 sequence (P10632 whole entry): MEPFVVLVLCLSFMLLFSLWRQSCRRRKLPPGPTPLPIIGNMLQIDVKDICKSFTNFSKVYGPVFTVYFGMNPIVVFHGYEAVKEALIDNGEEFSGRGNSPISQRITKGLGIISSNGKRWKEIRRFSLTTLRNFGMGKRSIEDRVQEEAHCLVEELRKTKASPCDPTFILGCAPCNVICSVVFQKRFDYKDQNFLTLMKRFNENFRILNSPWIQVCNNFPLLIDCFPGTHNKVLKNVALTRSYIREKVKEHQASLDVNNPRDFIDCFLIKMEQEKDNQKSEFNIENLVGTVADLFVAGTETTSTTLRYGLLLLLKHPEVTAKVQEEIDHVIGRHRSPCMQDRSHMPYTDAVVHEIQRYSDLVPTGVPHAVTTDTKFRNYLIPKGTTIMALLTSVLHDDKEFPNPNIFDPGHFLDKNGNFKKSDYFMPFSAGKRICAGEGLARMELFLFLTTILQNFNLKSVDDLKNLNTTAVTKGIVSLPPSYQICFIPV

[5] = test system: Rattus norvegicus; experiment: Dose normalized AUC in rat at 2 mg/kg, po; assay type: ADME, organism-based; details: in vivo
[6] = Oral bioavailability in rat at 2 mg/kg; assay type: ADME, organism-based; details: in vivo
[7] = biological target: Voltage-gated inwardly rectifying potassium channel KCNH2 (Homo sapiens, UniProt Q12809)
Sequence of Voltage-gated inwardly rectifying potassium channel KCNH2 (Q12809 whole entry): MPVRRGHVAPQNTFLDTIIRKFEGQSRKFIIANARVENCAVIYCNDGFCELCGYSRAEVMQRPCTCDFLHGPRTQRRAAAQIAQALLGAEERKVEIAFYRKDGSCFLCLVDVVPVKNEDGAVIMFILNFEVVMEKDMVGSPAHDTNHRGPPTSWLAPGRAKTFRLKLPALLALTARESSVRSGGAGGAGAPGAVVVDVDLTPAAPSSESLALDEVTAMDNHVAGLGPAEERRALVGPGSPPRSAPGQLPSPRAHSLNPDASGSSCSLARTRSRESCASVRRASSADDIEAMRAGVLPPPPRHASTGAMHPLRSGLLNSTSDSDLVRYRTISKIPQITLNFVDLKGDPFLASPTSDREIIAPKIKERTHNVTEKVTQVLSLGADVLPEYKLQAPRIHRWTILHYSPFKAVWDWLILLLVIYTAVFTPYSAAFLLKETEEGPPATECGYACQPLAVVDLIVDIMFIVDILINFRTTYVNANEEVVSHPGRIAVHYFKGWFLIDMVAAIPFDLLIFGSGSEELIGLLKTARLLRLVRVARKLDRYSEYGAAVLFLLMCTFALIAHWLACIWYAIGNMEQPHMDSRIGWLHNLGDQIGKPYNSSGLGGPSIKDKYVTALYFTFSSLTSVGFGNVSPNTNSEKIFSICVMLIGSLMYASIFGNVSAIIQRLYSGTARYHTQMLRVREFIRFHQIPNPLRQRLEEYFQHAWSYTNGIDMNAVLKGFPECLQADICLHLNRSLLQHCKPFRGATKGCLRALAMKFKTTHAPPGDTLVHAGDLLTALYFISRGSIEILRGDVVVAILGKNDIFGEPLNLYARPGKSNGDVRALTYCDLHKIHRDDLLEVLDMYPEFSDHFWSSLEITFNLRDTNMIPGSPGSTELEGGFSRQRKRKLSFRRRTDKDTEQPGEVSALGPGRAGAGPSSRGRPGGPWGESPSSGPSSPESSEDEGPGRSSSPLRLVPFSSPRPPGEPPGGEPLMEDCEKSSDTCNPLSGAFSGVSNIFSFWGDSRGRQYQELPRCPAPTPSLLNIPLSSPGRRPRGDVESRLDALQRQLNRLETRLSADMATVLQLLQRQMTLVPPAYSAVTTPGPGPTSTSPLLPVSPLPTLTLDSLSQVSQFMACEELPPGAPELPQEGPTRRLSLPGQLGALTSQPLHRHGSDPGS

[8] = biological target: Cytochrome P450 3A4 (Homo sapiens, UniProt P08684); experiment: Inhibition of CYP3A4 (unknown origin); assay type: ADME
Sequence of Cytochrome P450 3A4 (P08684 whole entry): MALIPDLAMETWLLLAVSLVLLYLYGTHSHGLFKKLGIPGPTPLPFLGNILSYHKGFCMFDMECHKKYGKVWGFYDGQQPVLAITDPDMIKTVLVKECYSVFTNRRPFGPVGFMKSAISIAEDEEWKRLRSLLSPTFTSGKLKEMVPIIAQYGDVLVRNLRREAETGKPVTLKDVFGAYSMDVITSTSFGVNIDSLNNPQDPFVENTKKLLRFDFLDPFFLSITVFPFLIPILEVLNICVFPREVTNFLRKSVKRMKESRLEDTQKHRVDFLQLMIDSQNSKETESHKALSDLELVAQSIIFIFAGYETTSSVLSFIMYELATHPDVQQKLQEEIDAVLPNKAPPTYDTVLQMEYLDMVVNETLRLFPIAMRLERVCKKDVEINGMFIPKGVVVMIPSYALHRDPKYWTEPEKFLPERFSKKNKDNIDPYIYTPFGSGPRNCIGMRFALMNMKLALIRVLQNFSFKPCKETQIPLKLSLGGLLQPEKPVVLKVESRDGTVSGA

[9] = biological target: Cytochrome P450 2D6 (Homo sapiens, UniProt P10635); experiment: Inhibition of CYP2D6 (unknown origin); assay type: ADME
Sequence of Cytochrome P450 2D6 (P10635 whole entry): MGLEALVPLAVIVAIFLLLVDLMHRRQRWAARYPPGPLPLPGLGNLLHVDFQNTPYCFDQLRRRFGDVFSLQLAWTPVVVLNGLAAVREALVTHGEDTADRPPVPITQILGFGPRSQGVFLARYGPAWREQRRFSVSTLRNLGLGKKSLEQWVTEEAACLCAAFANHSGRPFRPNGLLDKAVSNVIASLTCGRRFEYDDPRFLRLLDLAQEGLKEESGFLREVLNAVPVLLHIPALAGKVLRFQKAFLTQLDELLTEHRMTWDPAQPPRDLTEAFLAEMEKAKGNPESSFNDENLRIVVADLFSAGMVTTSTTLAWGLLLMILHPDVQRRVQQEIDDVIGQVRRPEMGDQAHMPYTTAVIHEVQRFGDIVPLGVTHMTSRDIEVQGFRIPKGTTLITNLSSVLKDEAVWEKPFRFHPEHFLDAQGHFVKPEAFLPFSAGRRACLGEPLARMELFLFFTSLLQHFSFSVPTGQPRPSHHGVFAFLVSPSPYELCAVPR

[10] = Clearance in rat at 2 mg/kg, po and 0.5 mg/kg, iv; assay type: ADME, organism-based; details: in vivo
[11] = biological target: Cytochrome P450 2C9 (Homo sapiens, UniProt P11712); experiment: Inhibition of CYP2C9 (unknown origin); assay type: ADME
Sequence of Cytochrome P450 2C9 (P11712 whole entry): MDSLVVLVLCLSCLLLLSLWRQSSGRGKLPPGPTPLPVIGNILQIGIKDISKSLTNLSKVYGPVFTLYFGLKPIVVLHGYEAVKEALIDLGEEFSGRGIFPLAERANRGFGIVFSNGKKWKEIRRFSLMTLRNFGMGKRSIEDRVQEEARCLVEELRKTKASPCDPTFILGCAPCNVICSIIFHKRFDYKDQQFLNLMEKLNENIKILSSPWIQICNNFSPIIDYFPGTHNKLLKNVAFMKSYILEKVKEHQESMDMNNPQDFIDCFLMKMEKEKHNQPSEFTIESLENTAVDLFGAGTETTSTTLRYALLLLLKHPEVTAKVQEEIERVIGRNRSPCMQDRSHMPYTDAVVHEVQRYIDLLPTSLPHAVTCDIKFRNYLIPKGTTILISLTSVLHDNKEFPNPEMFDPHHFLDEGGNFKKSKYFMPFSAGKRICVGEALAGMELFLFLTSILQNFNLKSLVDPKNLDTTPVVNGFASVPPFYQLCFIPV

[12] = test system: Plasma; experiment: Anticoagulant activity in 10 pM tissue factor stimulated human CTI-citrated plasma assessed as inhibition of thrombin generation incubated for 5 mins by calibrated automated thrombogram analysis; assay type: functional, cell-free
[13] = test system: Plasma; experiment: Anticoagulant activity in 3 pM recombinant coagulation factor 11a stimulated human CTI-citrated plasma assessed as inhibition of thrombin generation incubated for 5 mins by calibrated automated thrombogram analysis; assay type: functional, cell-free
[14] = test system: Plasma; experiment: Anticoagulant activity in 3 pM tissue factor stimulated human CTI-citrated plasma assessed as inhibition of thrombin generation incubated for 5 mins by calibrated automated thrombogram analysis; assay type: functional, cell-free
[15] = test system: Plasma; experiment: Anticoagulant activity in 1 pM tissue factor stimulated human CTI-citrated plasma assessed as inhibition of thrombin generation incubated for 5 mins by calibrated automated thrombogram analysis; assay type: functional, cell-free
[16] = test system: Plasma; experiment: Anticoagulant activity in 0.1 pM recombinant coagulation factor 11a stimulated human CTI-citrated plasma assessed as inhibition of thrombin generation incubated for 5 mins by calibrated automated thrombogram analysis; assay type: functional, cell-free
[17] = test system: Plasma; experiment: Anticoagulant activity in 0.3 pM tissue factor stimulated human CTI-citrated plasma assessed as inhibition of thrombin generation incubated for 5 mins by calibrated automated thrombogram analysis; assay type: functional, cell-free
[18] = test system: Plasma; experiment: Anticoagulant activity in 0.3 pM recombinant coagulation factor 11a stimulated human CTI-citrated plasma assessed as inhibition of thrombin generation incubated for 5 mins by calibrated automated thrombogram analysis; assay type: functional, cell-free
[19] = test system: Plasma; experiment: Anticoagulant activity in 10 pM recombinant coagulation factor 11a stimulated human CTI-citrated plasma assessed as inhibition of thrombin generation incubated for 5 mins by calibrated automated thrombogram analysis; assay type: functional, cell-free
[20] = test system: Plasma; experiment: Anticoagulant activity in 20 pM tissue factor stimulated human CTI-citrated plasma assessed as inhibition of thrombin generation incubated for 5 mins by calibrated automated thrombogram analysis; assay type: functional, cell-free
[21] = test system: Plasma; experiment: Anticoagulant activity in 1 pM recombinant coagulation factor 11a stimulated human CTI-citrated plasma assessed as inhibition of thrombin generation incubated for 5 mins by calibrated automated thrombogram analysis; assay type: functional, cell-free

Sequence of Coagulation factor X (P00742 41-179 limits assumed): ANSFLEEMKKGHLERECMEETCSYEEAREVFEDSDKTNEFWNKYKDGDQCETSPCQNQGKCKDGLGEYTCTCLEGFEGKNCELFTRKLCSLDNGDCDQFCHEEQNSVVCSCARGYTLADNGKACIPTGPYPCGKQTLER
Sequence of Coagulation factor X (P00742 235-488 limits assumed): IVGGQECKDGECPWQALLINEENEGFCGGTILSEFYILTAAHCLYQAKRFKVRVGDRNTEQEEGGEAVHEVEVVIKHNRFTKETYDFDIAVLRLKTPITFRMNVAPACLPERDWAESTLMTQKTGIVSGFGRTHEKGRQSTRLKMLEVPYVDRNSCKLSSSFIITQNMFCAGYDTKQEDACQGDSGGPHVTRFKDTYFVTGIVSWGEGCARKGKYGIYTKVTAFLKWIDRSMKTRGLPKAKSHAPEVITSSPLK

## Cc1cc2nc([C@@H](CNC(=O)c3c(Cl)cc(-n4cnnc4)cc3Cl)c3ccccc3)[nH]c2cc1C
[1]
  Ki: 0.105 µM
[2]
  Ki: 0.0036 µM

## Cc1cc2nc([C@@H](CNC(=O)c3c(F)cc(-n4cnnc4)cc3Cl)c3ccccc3)[nH]c2cc1C
[1]
  Ki: 0.544 µM
[2]
  Ki: 0.0152 µM

## Cc1cc2nc([C@@H](CNC(=O)c3c(C)cc(-n4cnnc4)cc3Cl)c3ccccc3)[nH]c2cc1C
[1]
  Ki: 0.195 µM
[2]
  Ki: 0.008 µM

## Cc1cc2nc([C@@H](CNC(=O)c3c(Cl)cc(-n4cnnc4)cc3C(F)(F)F)c3ccccc3)[nH]c2cc1C
[1]
  Ki: 0.34 µM
[2]
  Ki: 0.0218 µM

## COc1cc(-n2cnnc2)cc(Cl)c1C(=O)NC[C@@H](c1ccccc1)c1nc2cc(C)c(C)cc2[nH]1
[1]
  Ki: 0.245 µM
[2]
  Ki: 0.0148 µM

## Cc1ncn(-c2cc(Cl)c(C(=O)NC[C@@H](c3ccccc3)c3nc4cc(C)c(C)cc4[nH]3)c(Cl)c2)n1
[1]
  Ki: 2.47 µM
[2]
  Ki: 0.0208 µM

## Cc1cc2nc([C@@H](CNC(=O)c3ccc(-n4cnnc4)cc3Cl)c3ccccc3F)[nH]c2cc1C
[1]
  Ki: 0.412 µM
[2]
  Ki: 0.0193 µM

## Cc1cc2nc([C@@H](CNC(=O)c3ccc(-n4cnnc4)cc3Cl)c3cccc(F)c3)[nH]c2cc1C
[1]
  Ki: 1.01 µM
[2]
  Ki: 0.0057 µM

## Cc1cc2nc([C@@H](CNC(=O)c3ccc(-n4cnnc4)cc3Cl)c3ccc(F)cc3)[nH]c2cc1C
[1]
  Ki: 1.51 µM
[2]
  Ki: 0.0084 µM

## Cc1cc2nc([C@@H](CNC(=O)c3ccc(-n4cnnc4)cc3Cl)c3cccnc3)[nH]c2cc1C
[1]
  Ki: 1.6 µM
[2]
  Ki: 0.0154 µM

## Cc1ncn(-c2cc(Cl)c(C(=O)NC[C@@H](c3cccc(F)c3)c3nc4cc(C)c(Cl)cc4[nH]3)c(Cl)c2)n1
[1]
  Ki: 15.2 µM
[2]
  Ki: 0.0136 µM

## COc1cc2nc([C@@H](CNC(=O)c3c(Cl)cc(-n4cnc(C)n4)cc3Cl)c3cccc(F)c3)[nH]c2cc1Cl
[3]
  half-life: 1.03 h
[4]
  IC50: 0.456 µM
[5]
  AUC/dose: 0.056 µM·h/mg/kg
[6]
  bioavailability: 7.89%
[7]
  IC50: 10.9 µM
[8]
  IC50: 33.3 µM
[1]
  Ki: 1.93 µM
[9]
  IC50: > 50 µM
[10]
  clearance: 42.1 mL/min/kg
[2]
  Ki: 0.0029 µM
[11]
  IC50: 9.09 µM

## Cc1ncn(-c2cc(Cl)c(C(=O)NC[C@@H](c3cccc(F)c3)c3nc4ccc(Cl)cc4[nH]3)c(Cl)c2)n1
[3]
  half-life: 0.8 h
[4]
  IC50: 5.28 µM
[5]
  AUC/dose: 1.74 µM·h/mg/kg
[6]
  bioavailability: 48.2%
[8]
  IC50: > 50 µM
[1]
  Ki: 20.7 µM
[9]
  IC50: 30.4 µM
[10]
  clearance: 8.77 mL/min/kg
[2]
  Ki: 0.0098 µM
[11]
  IC50: 19.8 µM

## Cc1ncn(-c2cc(Cl)c(C(=O)NC[C@@H](c3cccc(F)c3)c3nc4c(C)cc(Cl)cc4[nH]3)c(Cl)c2)n1
[3]
  half-life: 1.66 h
[4]
  IC50: 4.04 µM
[5]
  AUC/dose: 4.36 µM·h/mg/kg
[6]
  bioavailability: 57.3%
[7]
  IC50: 3.05 µM
[8]
  IC50: > 50 µM
[1]
  Ki: > 28.9 µM
[9]
  IC50: > 50 µM
[10]
  clearance: 3.84 mL/min/kg
[2]
  Ki: 0.0062 µM
[11]
  IC50: 22.4 µM

## Cc1ncn(-c2cc(Cl)c(C(=O)NC[C@@H](c3cccc(F)c3)c3ccc4[nH]c(C)nc4c3)c(Cl)c2)n1
[3]
  half-life: 1.24 h
[4]
  IC50: 1.57 µM
[5]
  AUC/dose: 0.097 µM·h/mg/kg
[12]
  IC50: 1.85 µM
[6]
  bioavailability: 11.1%
[13]
  IC50: 7.16 µM
[14]
  IC50: 0.953 µM
[7]
  IC50: 19.9 µM
[15]
  IC50: 1.16 µM
[16]
  IC50: 0.303 µM
[17]
  IC50: 1.64 µM
[18]
  IC50: 1.6 µM
[8]
  IC50: > 50 µM
[1]
  Ki: 2.8 µM
[9]
  IC50: 31.6 µM
[19]
  IC50: 22.4 µM
[20]
  IC50: 1.9 µM
[21]
  IC50: 2.52 µM
[10]
  clearance: 36.5 mL/min/kg
[2]
  Ki: 0.0091 µM
[11]
  IC50: 24.9 µM

## Cc1ncn(-c2cc(Cl)c(C(=O)NC[C@@H](c3cccc(F)c3)c3cnc4[nH]c(C)cc4c3)c(Cl)c2)n1
[1]
  Ki: > 28.9 µM
[2]
  Ki: 0.0037 µM

## Cc1ncn(-c2cc(Cl)c(C(=O)NC[C@@H](c3cccc(F)c3)c3nc4c(F)ccc(C)c4c(=O)[nH]3)c(Cl)c2)n1
[3]
  half-life: 1.12 h
[4]
  IC50: 24.4 µM
[5]
  AUC/dose: 0.284 µM·h/mg/kg
[6]
  bioavailability: 14.1%
[7]
  IC50: > 60 µM
[8]
  IC50: > 50 µM
[1]
  Ki: > 28.9 µM
[9]
  IC50: > 50 µM
[10]
  clearance: 15.5 mL/min/kg
[2]
  Ki: 0.001 µM
[11]
  IC50: 42.8 µM

## Cc1ncn(-c2cc(Cl)c(C(=O)NC[C@@H](c3cccc(F)c3)c3cc(=O)c4c(C)ccc(F)c4[nH]3)c(Cl)c2)n1
[1]
  Ki: > 28.9 µM
[2]
  Ki: 0.0033 µM

## Cc1ncn(-c2cc(Cl)c(C(=O)NC[C@@H](c3cccc(F)c3)c3ccc4c(C)ccc(F)c4n3)c(Cl)c2)n1
[1]
  Ki: > 28.9 µM
[2]
  Ki: 0.0104 µM

## COc1ccc(-n2nc(C(N)=O)c3c2C(=O)N(c2ccc(N4CCCCC4=O)cc2)CC3)cc1 [APIXABAN]
[12]
  IC50: 0.159 µM
[13]
  IC50: 0.747 µM
[14]
  IC50: 0.0484 µM
[15]
  IC50: 0.0337 µM
[16]
  IC50: 0.0513 µM
[17]
  IC50: 0.0476 µM
[18]
  IC50: 0.116 µM
[19]
  IC50: 2.41 µM
[20]
  IC50: 0.299 µM
[21]
  IC50: 0.191 µM
